In experiment [1] the test system is CTGF expression in renal fibroblasts. Conditions: Ott et al., 2003; cited from earlier work.
Experiment [2] concerns CTGF expression in human keloid fibroblasts. Put plainly: TGF-β1-induced CTGF expression, Western blot densitometry related to GAPDH. The class given is cell-based. As for the experimental part:
Fibroblast culture: Human keloid fibroblasts were grown in 10 cm^2 dishes to 70% confluence in DMEM with 10% FBS and additional penicillin and streptomycin (1%), at 37° C. and 10% CO2. Cells were serum starved in DMEM containing 0.5% FBS for 48 h before the experiment. At the start of the assay, fresh media was added to the dishes, and cells were either untreated (control) or treated with TGF-β1 (doses ranging from 0.6 to 5 ng/mL), P20 phosphopeptide (doses ranging from 50-200 μM), forskolin (FSK, 10 μM) or SNAP (500 μM) for 24 h. To verify the influence of serum starvation, we also had cells in 10% FBS containing medium (control high serum).
Western blot analysis: At the end of the experiment, cells were rinsed with PBS, and homogenized using UDC buffer. Lysates were mixed, centrifuged (6000×g) for 20 min, and the supernatant was used for determination of CTGF and collagen expression. Samples (20 μg of protein) were loaded on 15 or 10% SDS-PAGE gels, and the proteins were electrophoretically transferred to Immobilon membranes. […] Protein-antibody complexes were visualized using the Odyssey direct infrared fluorescence imaging system (Li-Cor, Lincoln, Nebr.). […]
P20 treatment and CTGF expression: Human keloid fibroblasts were serum-starved in DMEM medium containing 0.5% FBS for 48 hours, stimulated with TGF-beta1 doses ranging from 1.2 to 5 ng/mL and concomitantly treated with the P20 phosphopeptide (50, 100 or 200 μM) for 24 hours. Western blot bands were quantified by densitometry, and CTGF expression was related to GAPDH expression to correct for loading differences. […]
Treatment with compounds that elevate cAMP and cGMP: We next evaluated the influence of compounds that elevate cAMP (Forskolin, FSK) or cGMP (SNAP) on CTGF expression in keloid fibroblasts. […] Western blot bands were quantified by densitometry, and CTGF expression was related to GAPDH expression to correct for loading differences. […]
(In western blotting, separated proteins are transferred to a membrane and probed.)

With latrunculin, in experiment [1], the CTGF expression result is “decreased”.

For the compound `C=C[C@@]1(C)CC(=O)[C@]2(O)[C@@]3(C)[C@@H](O)CCC(C)(C)[C@@H]3[C@H](O)[C@H](OC(C)=O)[C@@]2(C)O1` [FSK, forskolin], the “decrease of CTGF expression” value in experiment [2] (TGF-β1-stimulated fibroblasts (2.5 ng/mL), FSK 10 μM, 24 h) is around 50%. Regarding `CC(=O)N[C@@H](C(=O)O)C(C)(C)SN=O` (racemic) [SNAP], in experiment [2] (TGF-β1-stimulated cells, SNAP 500 μM), the “decrease of CTGF expression” value is “did not decrease”. Besides, the “CTGF expression compared to untreated (control) cells” value in experiment [2] (non-stimulated cells, SNAP 500 μM, p<0.05) is reported as “two-time increase”.

The values are drawn from patent US20110028398A1, “METHODS FOR TREATING AND LIMITING FIBROTIC DISORDERS AND KELOIDS” (The Arizona Board of Regents, a body corporate acting for …, priority 2006, published 2011).
